Assay results as given in patent US20260262643A1, “HERBICIDAL BENZOXAZINES” (FMC CORPORATION, priority 2022, published 2026).

Experiments:
rice = assay: Test B flooded paddy test; assay type: in vivo, Oryza sativa; conditions: 250 g ai/ha, Flood, 13 days, 0 to 100 scale (0 no effect, 100 complete control)
Summary of the method: (§1)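 Each species was raised to the 2-leaf stage. At treatment, each pot received floodwater 3 cm deep, with the chemical delivered into the water. Greenhouse holding followed for 13 days, then percent control was estimated visually versus untreated pots.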

wheat [1] = assay: Test A preemergence; assay type: in vivo, Triticum aestivum
Summary of the method: (§2)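 Plants were grown in loam and sand and treated preemergence or postemergence (one- to two-leaf stage, 2–10 cm) with compound in solvent plus surfactant. Response was scored against untreated controls after 10 greenhouse days, where 0 means no effect and 100 complete control.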

ryegrass, Italian [2] = assay: Test A postemergence; assay type: in vivo, Lolium multiflorum
Summary of the method: as §2

oat, wild [3] = assay: Test A postemergence; assay type: in vivo, Avena fatua
Summary of the method: as §2

corn [4] = assay: Test A postemergence; assay type: in vivo, Zea mays
Summary of the method: as §2

kochia [5] = assay: Test A postemergence; assay type: in vivo, Bassia scoparia
Summary of the method: as §2

sedge, umbrella = assay: Test B flooded paddy test; assay type: in vivo, Cyperus difformis; conditions: 250 g ai/ha, Flood, 13 days, 0 to 100 scale (0 no effect, 100 complete control)
Summary of the method: as §1

barnyardgrass = assay: Test B flooded paddy test; assay type: in vivo, Echinochloa crus-galli; conditions: 250 g ai/ha, Flood, 13 days, 0 to 100 scale (0 no effect, 100 complete control)
Summary of the method: as §1

kochia [6] = assay: Test A preemergence; assay type: in vivo, Bassia scoparia
Summary of the method: as §2

foxtail, giant [7] = assay: Test A preemergence; assay type: in vivo, Setaria faberi
Summary of the method: as §2

ryegrass, Italian [8] = assay: Test A preemergence; assay type: in vivo, Lolium multiflorum
Summary of the method: as §2

pigweed, palmer [9] = assay: Test A postemergence; assay type: in vivo, Amaranthus palmeri
Summary of the method: as §2

soybean [10] = assay: Test A postemergence; assay type: in vivo, Glycine max
Summary of the method: as §2

blackgrass [11] = assay: Test A postemergence; assay type: in vivo, Alopecurus myosuroides
Summary of the method: as §2

wheat [12] = assay: Test A postemergence; assay type: in vivo, Triticum aestivum
Summary of the method: as §2

corn [13] = assay: Test A preemergence; assay type: in vivo, Zea mays
Summary of the method: as §2

pigweed, palmer [14] = assay: Test A preemergence; assay type: in vivo, Amaranthus palmeri
Summary of the method: as §2

goosegrass [15] = assay: Test A preemergence; assay type: in vivo, Eleusine indica
Summary of the method: as §2

ducksalad = assay: Test B flooded paddy test; assay type: in vivo, Heteranthera limosa; conditions: 250 g ai/ha, Flood, 13 days, 0 to 100 scale (0 no effect, 100 complete control)
Summary of the method: as §1

goosegrass [16] = assay: Test A postemergence; assay type: in vivo, Eleusine indica
Summary of the method: as §2

oat, wild [17] = assay: Test A preemergence; assay type: in vivo, Avena fatua
Summary of the method: as §2

blackgrass [18] = assay: Test A preemergence; assay type: in vivo, Alopecurus myosuroides
Summary of the method: as §2

foxtail, giant [19] = assay: Test A postemergence; assay type: in vivo, Setaria faberi
Summary of the method: as §2

ragweed [20] = assay: Test A postemergence; assay type: in vivo, Ambrosia artemisiifolia
Summary of the method: as §2

ragweed [21] = assay: Test A preemergence; assay type: in vivo, Ambrosia artemisiifolia
Summary of the method: as §2

soybean [22] = assay: Test A preemergence; assay type: in vivo, Glycine max
Summary of the method: as §2

galium = assay: Test A postemergence; assay type: in vivo, Galium aparine
Summary of the method: as §2

[23] = 125 g ai/ha, visual injury after 10 days, 0 to 100 scale, 0 is no effect, 100 is complete control
[24] = 500 g ai/ha, 0 to 100 scale (0 no effect, 100 complete control), 10 days
[25] = 125 g ai/ha, postemergence, 10 days, visual injury, 0 to 100 scale (0 no effect, 100 complete control)
[26] = 500 g ai/ha, Postemergence, 0 to 100 scale

Cc1ccc(C(=O)N2CC(C)Oc3c(Cl)cccc32)cc1-n1cncn1 (centres unmarked) [Compound 38]
Plant response rating, Rice (rice): 0
Plant response rating, Wheat (wheat [1]; [23]): 0
Plant response rating, Wheat (wheat [1]; [24]): 10
Plant response rating, Ryegrass, Italian (ryegrass, Italian [2]; [25]): 10
Plant response rating, Ryegrass, Italian (ryegrass, Italian [2]; [26]): 60
Plant response rating, Oat, Wild (oat, wild [3]; [25]): 0
Plant response rating, Oat, Wild (oat, wild [3]; [26]): 40
Plant response rating, Corn (corn [4]; [25]): 20
Plant response rating, Corn (corn [4]; [26]): 80
Plant response rating, Kochia (kochia [5]; [25]): 20
Plant response rating, Kochia (kochia [5]; [26]): 60
Plant response rating, Sedge, Umbrella (sedge, umbrella): 0
Plant response rating, Barnyardgrass (barnyardgrass): 0
Plant response rating, Kochia (kochia [6]; [23]): 0
Plant response rating, Kochia (kochia [6]; [24]): 30
Plant response rating, Foxtail, Giant (foxtail, giant [7]; [23]): 70
Plant response rating, Foxtail, Giant (foxtail, giant [7]; [24]): 100
Plant response rating, Ryegrass, Italian (ryegrass, Italian [8]; [23]): 70
Plant response rating, Ryegrass, Italian (ryegrass, Italian [8]; [24]): 80
Plant response rating, Pigweed, Palmer (pigweed, palmer [9]; [25]): 30
Plant response rating, Pigweed, Palmer (pigweed, palmer [9]; [26]): 50
Plant response rating, Soybean (soybean [10]; [26]): 50
Plant response rating, Blackgrass (blackgrass [11]; [25]): 0
Plant response rating, Blackgrass (blackgrass [11]; [26]): 70
Plant response rating, Wheat (wheat [12]; [25]): 10
Plant response rating, Wheat (wheat [12]; [26]): 70
Plant response rating, Corn (corn [13]; [23]): 20
Plant response rating, Corn (corn [13]; [24]): 30
Plant response rating, Pigweed, Palmer (pigweed, palmer [14]; [23]): 10
Plant response rating, Pigweed, Palmer (pigweed, palmer [14]; [24]): 70
Plant response rating, Goosegrass (goosegrass [15]; [23]): 70
Plant response rating, Goosegrass (goosegrass [15]; [24]): 100
Plant response rating, Ducksalad (ducksalad): 0
Plant response rating, Goosegrass (goosegrass [16]; [25]): 30
Plant response rating, Goosegrass (goosegrass [16]; [26]): 70
Plant response rating, Oat, Wild (oat, wild [17]; [23]): 10
Plant response rating, Oat, Wild (oat, wild [17]; [24]): 60
Plant response rating, Blackgrass (blackgrass [18]; [23]): 30
Plant response rating, Blackgrass (blackgrass [18]; [24]): 70
Plant response rating, Foxtail, Giant (foxtail, giant [19]; [25]): 60
Plant response rating, Foxtail, Giant (foxtail, giant [19]; [26]): 90
Plant response rating, Ragweed (ragweed [20]; [25]): 0
Plant response rating, Ragweed (ragweed [20]; [26]): 0
Plant response rating, Ragweed (ragweed [21]; [23]): 0
Plant response rating, Ragweed (ragweed [21]; [24]): 0
Plant response rating, Soybean (soybean [22]; [23]): 0
Plant response rating, Soybean (soybean [22]; [24]): 30
Plant response rating, Galium (galium; [25]): 30
Plant response rating, Galium (galium; [26]): 50

C[C@H]1CN(C(=O)c2cccc(-n3cncn3)c2)c2cccc(C#N)c2O1 [Compound 46]
Plant response rating, Rice (rice): 0
Plant response rating, Wheat (wheat [1]; [23]): 0
Plant response rating, Wheat (wheat [1]; [24]): 30
Plant response rating, Ryegrass, Italian (ryegrass, Italian [2]; [25]): 40
Plant response rating, Ryegrass, Italian (ryegrass, Italian [2]; [26]): 80
Plant response rating, Oat, Wild (oat, wild [3]; [25]): 0
Plant response rating, Oat, Wild (oat, wild [3]; [26]): 40
Plant response rating, Corn (corn [4]; [25]): 10
Plant response rating, Corn (corn [4]; [26]): 30
Plant response rating, Kochia (kochia [5]; [25]): 20
Plant response rating, Kochia (kochia [5]; [26]): 80
Plant response rating, Sedge, Umbrella (sedge, umbrella): 0
Plant response rating, Barnyardgrass (barnyardgrass): 0
Plant response rating, Kochia (kochia [6]; [24]): 40
Plant response rating, Foxtail, Giant (foxtail, giant [7]; [23]): 60
Plant response rating, Foxtail, Giant (foxtail, giant [7]; [24]): 100
Plant response rating, Ryegrass, Italian (ryegrass, Italian [8]; [23]): 60
Plant response rating, Ryegrass, Italian (ryegrass, Italian [8]; [24]): 80
Plant response rating, Pigweed, Palmer (pigweed, palmer [9]; [25]): 20
Plant response rating, Pigweed, Palmer (pigweed, palmer [9]; [26]): 50
Plant response rating, Soybean (soybean [10]; [25]): 90
Plant response rating, Soybean (soybean [10]; [26]): 100
Plant response rating, Blackgrass (blackgrass [11]; [25]): 30
Plant response rating, Blackgrass (blackgrass [11]; [26]): 70
Plant response rating, Wheat (wheat [12]; [25]): 10
Plant response rating, Wheat (wheat [12]; [26]): 50
Plant response rating, Corn (corn [13]; [23]): 0
Plant response rating, Corn (corn [13]; [24]): 0
Plant response rating, Pigweed, Palmer (pigweed, palmer [14]; [23]): 40
Plant response rating, Pigweed, Palmer (pigweed, palmer [14]; [24]): 90
Plant response rating, Goosegrass (goosegrass [15]; [23]): 60
Plant response rating, Goosegrass (goosegrass [15]; [24]): 100
Plant response rating, Ducksalad (ducksalad): 0
Plant response rating, Goosegrass (goosegrass [16]; [25]): 10
Plant response rating, Goosegrass (goosegrass [16]; [26]): 60
Plant response rating, Oat, Wild (oat, wild [17]; [23]): 0
Plant response rating, Oat, Wild (oat, wild [17]; [24]): 70
Plant response rating, Blackgrass (blackgrass [18]; [23]): 60
Plant response rating, Blackgrass (blackgrass [18]; [24]): 90
Plant response rating, Foxtail, Giant (foxtail, giant [19]; [25]): 20
Plant response rating, Foxtail, Giant (foxtail, giant [19]; [26]): 90
Plant response rating, Ragweed (ragweed [20]; [25]): 0
Plant response rating, Ragweed (ragweed [20]; [26]): 0
Plant response rating, Ragweed (ragweed [21]; [23]): 0
Plant response rating, Ragweed (ragweed [21]; [24]): 0
Plant response rating, Soybean (soybean [22]; [23]): 20
Plant response rating, Soybean (soybean [22]; [24]): 60
Plant response rating, Galium (galium; [25]): 60
Plant response rating, Galium (galium; [26]): 100
